Measurements reported in US10519114B2, “Peptidomimetics and methods of using the same” (The Regents of the University of Michigan, priority 2016, dated 2019).

Key:
[1] = biological target: T1, rat μ (C6-MOR) opioid receptor (Rattus norvegicus, UniProt P33535); test: Stimulation of [35S]GTPγS binding, MOR; format: biochemical; settings: for EC50: [35S]GTPγS binding, C6-MOR membranes, mean ± standard error; for Emax: [35S]GTPγS maximal stimulation compared with 10 μM standard DAMGO
T1 construct: expressed in transfected cells
Summary of the method: (§1)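 Membranes (10–20 μg protein) from C6 glioma cells expressing rat MOR or DOR, or CHO cells expressing human KOR, were incubated 1 h at room temperature with 0.1 nM [35S]GTPγS, 30 μM GDP and test peptides in Tris buffer pH 7.4. Bound label was filtered and counted; maximal stimulation, by nonlinear regression, was relative to 10 μM DAMGO (MOR), DPDPE (DOR) or U69,593 (KOR).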

[2] = biological target: T2, human κ (CHO-KOR) opioid receptor (Homo sapiens, UniProt P41145); test: Radioligand binding assay, [3H]diprenorphine displacement, KOR; settings: displacement of 0.2 nM [3H]diprenorphine, CHO-KOR membranes; mean ± standard error
T2 construct: expressed in transfected cells
Summary of the method: (§2)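 Ki values come from logistic fits of competition data, with filter-bound radioactivity counted after displacement of 0.2 nM [3H]diprenorphine. Membranes were from rat receptor-transfected C6 cells (MOR, DOR) or human KOR-expressing CHO cells. Incubation ran 1 h at room temperature in pH 7.4 Tris-HCl.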

[3] = biological target: T3, rat δ (C6-DOR) opioid receptor (Rattus norvegicus, UniProt P33533); test: Stimulation of [35S]GTPγS binding, DOR; format: biochemical; settings: for EC50 (nm) DOR / EC50: [35S]GTPγS binding, C6-DOR membranes, mean ± standard error; for % stimulation DOR / Emax: [35S]GTPγS maximal stimulation compared with 10 μM standard DPDPE
T3 construct: expressed in transfected cells
Summary of the method: as §1

[4] = biological target: T1, rat μ (C6-MOR) opioid receptor; test: Radioligand binding assay, [3H]diprenorphine displacement, MOR; settings: displacement of 0.2 nM [3H]diprenorphine, C6-MOR membranes; mean ± standard error
Summary of the method: as §2

[5] = biological target: T3, rat δ (C6-DOR) opioid receptor; test: Radioligand binding assay, [3H]diprenorphine displacement, DOR; settings: displacement of 0.2 nM [3H]diprenorphine, C6-DOR membranes; mean ± standard error
Summary of the method: as §2

C57BL/6 mice = test: Antinociception, warm water tail withdrawal assay;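 on Antinociceptive activity: fully efficacious means no withdrawal up to the 20 s cutoff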; format: in vivo; settings: mouse tail withdrawal; for Antinociceptive activity: 50° C. water bath, cutoff 20 s, ip; for Duration: duration of antinociceptive action, 50° C.
Protocol: In Vivo Pharmacology. Animals. Adult male C57BL/6 mice weighing between 20 and 30 g at 8-16 weeks old were used for the current experiments (obtained from Jackson Laboratories (Bar Harbor, Me.), Harlan (Indianapolis, Ind.), or bred in-house). Mice were group-housed and had free access to food and water at all times. Experiments were conducted in the housing room, which was maintained on a 12 h light/dark cycle (with lights on at 0700). Each mouse was used only once and experiments were conducted between 11 a.m. and 4 p.m. Studies were performed in accordance with the University of Michigan Committee on the Use and Care of Animals and the Guide for the Care and Use of Laboratory Animals (National Research Council, 2011 publication).
Antinociception. The antinociceptive effects of the compounds disclosed herein and morphine can be evaluated in the warm water tail withdrawal assay using a cumulative dosing procedure. To determine tail withdrawal latencies, each mouse was placed briefly into a plastic, cylindrical restrainer and 2-3 cm of the tail tip was placed into a water bath maintained at 50° C. The latency to withdraw the tail was recorded with a maximum cutoff time of 20 s. […] Each animal received an injection of saline (intraperitoneal, ip) and then 30 min later, the baseline withdrawal latencies were recorded and ranged between 3 and 6 s. Following baseline determinations, three increasing doses (1, 2.2, and 6.8 mg/kg) of 1(4R) were given at 30 min intervals to provide final doses of 1, 3.2, and 10 mg/kg. Thirty minutes after each injection, the tail withdrawal latency was measured as described above. To confirm that 1(4R) was acting at opioid receptors, the cumulative dose response was repeated over the doses 3.2, 10, and 32 mg/kg following a 30 min pretreatment with 1 mg/kg naltrexone (ip). To determine the time-course of antinociceptive action the tail-withdrawal test was performed at varying times following administration of morphine (10 mg/kg, ip) or 1(4R) (10 mg/kg, ip).

[6] = biological target: T2, human κ (CHO-KOR) opioid receptor; test: Stimulation of [35S]GTPγS binding, KOR; format: biochemical; settings: for EC50 (nm) KOR / EC50: [35S]GTPγS binding, CHO-KOR membranes, mean ± standard error; for % stimulation KOR / Emax: [35S]GTPγS maximal stimulation compared with 10 μM standard U-69,593
Summary of the method: as §1

T2 sequence (P41145 whole entry): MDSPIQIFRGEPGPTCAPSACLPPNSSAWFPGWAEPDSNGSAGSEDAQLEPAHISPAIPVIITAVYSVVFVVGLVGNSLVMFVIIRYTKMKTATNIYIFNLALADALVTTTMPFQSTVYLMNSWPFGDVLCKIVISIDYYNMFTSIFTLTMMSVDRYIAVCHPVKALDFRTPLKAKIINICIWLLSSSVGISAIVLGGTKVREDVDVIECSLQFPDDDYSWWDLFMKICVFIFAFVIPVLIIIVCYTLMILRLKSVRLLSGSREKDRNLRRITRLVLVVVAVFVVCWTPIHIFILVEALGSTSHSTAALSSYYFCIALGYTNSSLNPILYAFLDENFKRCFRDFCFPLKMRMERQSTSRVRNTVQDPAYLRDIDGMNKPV
T3 sequence (P33533 whole entry): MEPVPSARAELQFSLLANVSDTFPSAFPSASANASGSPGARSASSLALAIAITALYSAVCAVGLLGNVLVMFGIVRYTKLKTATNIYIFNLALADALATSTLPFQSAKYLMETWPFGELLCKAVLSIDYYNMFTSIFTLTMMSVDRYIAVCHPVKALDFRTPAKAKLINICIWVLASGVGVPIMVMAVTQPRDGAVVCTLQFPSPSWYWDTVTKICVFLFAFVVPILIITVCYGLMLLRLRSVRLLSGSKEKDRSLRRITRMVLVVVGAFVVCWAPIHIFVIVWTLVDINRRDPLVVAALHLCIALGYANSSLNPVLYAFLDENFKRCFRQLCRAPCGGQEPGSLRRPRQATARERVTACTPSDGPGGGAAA
T1 sequence (P33535 whole entry): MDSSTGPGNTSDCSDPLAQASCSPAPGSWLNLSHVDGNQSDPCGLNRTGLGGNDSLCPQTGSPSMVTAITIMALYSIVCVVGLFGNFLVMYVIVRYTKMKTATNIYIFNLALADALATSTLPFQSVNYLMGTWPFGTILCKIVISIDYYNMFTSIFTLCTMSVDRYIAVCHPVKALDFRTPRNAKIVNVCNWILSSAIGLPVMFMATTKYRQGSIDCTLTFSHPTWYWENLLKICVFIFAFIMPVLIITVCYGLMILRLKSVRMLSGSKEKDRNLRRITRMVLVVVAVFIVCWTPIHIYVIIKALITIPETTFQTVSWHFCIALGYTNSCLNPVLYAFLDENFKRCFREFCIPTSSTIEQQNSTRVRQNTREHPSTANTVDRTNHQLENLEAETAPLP

Structure (SMILES) | EC50 [1] [nM] | Emax [1] [%] | Ki [2] [nM] | EC50 (nm) DOR [3] | % stimulation DOR [3] | Ki [4] [nM] | Ki [5] [nM] | Antinociceptive activity (C57BL/6 mice) | EC50 (nm) KOR [6] | % stimulation KOR [6] | EC50 [3] [nM] | Emax [3] [%] | EC50 [6] [nM] | Emax [6] [%] | Duration (C57BL/6 mice) [min]
Cc1cc(O)cc(C)c1C[C@H](N)C(=O)N[C@@H]1CCNc2c(Cc3ccccc3)cc(Cc3ccccc3)cc21 [Compound 1041] | 7.25 | 73 | 13.2 | dns | dns | 0.73 | 0.86 | Inactive |  |  |  |  |  |  | 
CCCc1cc(Cc2ccccc2)cc2c1NCC[C@H]2NC(=O)[C@@H](N)Cc1c(C)cc(O)cc1C [Compound 1056] | 23.3 ± 6.94 | 89.5 ± 6.27 | 98.4 ± 18.2 |  |  | 0.64 ± 0.08 | 5.89 ± 1.5 | Inactive | dns | dns | 307 ± 28.6 | 35.7 ± 2.62 |  |  | 
Cc1cc(O)cc(C)c1C[C@H](N)C(=O)N[C@@H]1CCNc2c1cc(Cc1ccccc1)cc2C(C)(C)C [Compound 1057] | 9.87 ± 3.55 | 83.2 ± 4.6 | 64.7 ± 17.8 |  |  | 0.91 ± 0.4 | 3.78 ± 0.66 | Partially active | dns | dns | 238 ± 39.3 | 57.9 ± 14 |  |  | 
Cc1cc(O)cc(C)c1C[C@H](N)C(=O)N[C@@H]1CCNc2c(F)cc(Cc3ccccc3)cc21 [Compound 1090] |  |  |  |  |  |  |  | Inactive |  |  |  |  |  |  | 
Cc1cc(O)cc(C)c1C[C@H](N)C(=O)N[C@@H]1CCNc2c(-c3ccoc3)cc(Cc3ccccc3)cc21 [Compound 1094] | 9.77 ± 6.34 | 103 ± 5 | 27.9 ± 6.24 |  |  | 0.34 ± 0.08 | 3.49 ± 0.55 | Inactive |  |  | 74.9 ± 61.5 | 36.7 ± 5.53 | 290 | 29 | 
Cc1cc(O)cc(C)c1C[C@H](N)C(=O)N[C@@H]1CCNc2c(CN3CCCCC3)cc(Cc3ccccc3)cc21 [Compound 1097] | 2.32 ± 0.21 | 93 ± 1.67 | 0.71 |  |  | 0.07 ± 0.03 | 2.41 | Inactive |  |  |  |  |  |  | 
Cc1cc(O)cc(C)c1C[C@H](N)C(=O)N[C@@H]1CCNc2c(CCc3ccccc3)cc(Cc3ccccc3)cc21 [Compound 1098] | 44.4 ± 16.6 | 78.4 ± 1.26 | 27.5 ± 7.81 | dns | dns | 0.64 ± 0.34 | 0.69 ± 0.03 | Inactive | dns | dns |  |  |  |  | 
Cc1cc(O)cc(C)c1C[C@H](N)C(=O)N[C@@H]1CCNc2c(CN3CCOCC3)cc(Cc3ccccc3)cc21 [Compound 1099] | 1.84 ± 0.41 | 96.1 ± 1.76 | 19.4 ± 8.53 |  |  | 0.15 ± 0.04 | 2.61 ± 0.79 | Inactive | dns | dns | 172 ± 65.8 | 29 ± 6.78 |  |  | 
Cc1cc(O)cc(C)c1C[C@H](N)C(=O)N[C@@H]1CCNc2c(C)cc(Cc3ccccc3)cc21 [Compound 1100] |  |  | 18.3 |  |  | 2.63 | 1.09 | Fully efficacious |  |  |  |  |  |  | 90
CCOC(=O)c1cc(Cc2ccccc2)cc2c1NCC[C@H]2NC(=O)[C@@H](N)Cc1c(C)cc(O)cc1C [Compound 1102] | 4.91 ± 0.28 | 70.5 ± 2.61 | 48.7 | dns | dns | 1.01 ± 0.28 | 4.2 | Fully efficacious |  |  |  |  |  |  | 150
Cc1cc(O)cc(C)c1C[C@H](N)C(=O)N[C@@H]1CCNc2c(C(=O)NCc3ccccc3)cc(Cc3ccccc3)cc21 [Compound 1104] | 4.18 | 79 | 29.4 | dns | dns | 0.36 | 2.17 | Inactive |  |  |  |  |  |  | 
CCCCc1cc(Cc2ccccc2)cc2c1NCC[C@H]2NC(=O)[C@@H](N)Cc1c(C)cc(O)cc1C [Compound 1126] | 17.9 ± 5.83 | 85 ± 2 | 34.4 ± 4.7 |  |  | 0.75 ± 0.4 | 3.55 ± 0.46 | Fully efficacious | dns | dns | 200 ± 77 | 24.9 ± 4.43 |  |  | 150
CCc1cc(Cc2ccccc2)cc2c1NCC[C@H]2NC(=O)[C@@H](N)Cc1c(C)cc(O)cc1C [Compound 1127] | 37 | 75 | 44 |  |  | 0.05 | 4.6 | Fully efficacious | dns | dns | 23 | 48 |  |  | 60
Cc1cc(O)cc(C)c1C[C@H](N)C(=O)N[C@@H]1CCNc2c(Br)cc(Cc3ccccc3)cc21 [Compound 1128] | 1.2 | 73 | 27 |  |  | 0.2 | 2.2 | Inactive |  |  | 36 | 69 | 300 | 30 | 
Cc1cc(O)cc(C)c1C[C@H](N)C(=O)N[C@@H]1CCNc2c1cc(Cc1ccccc1)cc2C(F)(F)F [Compound 1129] | 1.8 | 70 | 21 |  |  | 0.3 | 3.7 | Inactive |  |  | 50 | 42 | 600 | 17 | 
Cc1cc(O)cc(C)c1C[C@H](N)C(=O)N[C@@H]1CCNc2c(C(=O)O)cc(Cc3ccccc3)cc21 [Compound 1130] | 4 | 60 | 700 | dns | dns | 0.6 | 2.3 | Inactive | dns | dns |  |  |  |  | 
